The source of these data is ChEMBL document CHEMBL1128889, “Preparation and biological evaluation of -Trifluoromethyl-,-unsaturated carbonyl compounds” (Bioorg Med Chem Lett, 1995).

≈ marks a conversion by molar mass, not a printed value.

The nature of this experiment: In vitro viable cell inhibitory towards interleukin-2 antiproducing effect was determined. The class given is functional.

`CC1(C)OC[C@H]([C@H](OC(=O)/C=C/C(F)(F)F)[C@@H](OC(=O)/C=C/C(F)(F)F)[C@H]2COC(C)(C)O2)O1` registered an IC50 of 0.8 µg/mL (≈ 1.58 µM).
Take `CC1(C)COC(=O)[C@@H]1OC(=O)/C=C/C(F)(F)F`: the IC50 was determined as 3.71 µg/mL (≈ 14.7 µM).

What is called IC50 is the point on the concentration scale where inhibition reaches its midpoint.
